Reference: paper PMC6133161, “Thiazoles with cyclopropyl fragment as antifungal, anticonvulsant, and anti-Toxoplasma gondii agents: synthesis, toxicity evaluation, and molecular docking study” (Medicinal Chemistry Research, 2018)
Converted amounts (≈) assume the structure as drawn.

Columns and labels:
Test in all cases: Broth microdilution MIC/MFC, clinical isolate
Type in all cases: cell-based
[1] = test system: C. krusei; details: Pichia kudriavzevii, C. krusei clinical strain; for MFC: read-out: MFC; for MIC: read-out: MIC
Text: (§1) In the study of antifungal activity of the compounds 3a–3j, 15 clinical strains of different species of yeasts from Candida species, namely C. albicans, C. dubliniensis C. famata, C. inconspicua, C. krusei, C. tropicalis, C. glabrata, C. lambica, C. kefyr, C. lusitaniae, C. parapsilosis, C. guilliermondii, C. lusitaniae, C. pulcherrima and C. sake were also used. These fungi were isolated by the author (from Department of Pharmaceutical Microbiology of Medical University in Lublin, Poland) from different clinical materials, e.g., from upper respiratory tract of hospitalized patients including cancer patients (i.e., with non-small cell lung cancer or hematological malignancies). Some patients were after pre-operative or post-operative chemotherapy (treated with etoposide or cis-platin given in doses according to the standard procedures), patients with chronic hepatitis C (undergoing peginterferon and ribavirin therapy or without antiviral therapy), patients with diabetes, elderly people, aged of 65 years old or older, staying in close population, such as a care centre and people staying outside the home care. The Ethical Committee of the Medical University of Lublin approved the study protocol (No. KE-0254/75/2011). The isolates were identified by standard diagnostic methods—biochemical microtest, e.g., API 20C AUX, ID 32C, API Candida (bioMérieux) on the basis of assimilation of various substrates. All the used microbial cultures were first subcultured on nutrient agar or Sabouraud agar for bacteria and fungi, respectively. The RPMI 1640 with MOPS (for fungi) were inoculated with the suspensions of fungal species. Microbial suspensions were prepared in sterile saline (0.85% NaCl) with an optical density of 0.5 McFarland standard scale (Wiegand et al. [2008]). Samples containing examined compounds were dissolved in dimethyl sulfoxide (DMSO). Furthermore, fungal suspensions were put onto Petri dishes with solid media containing 2 mg/ml of the tested compounds followed incubation under appropriate conditions. The inhibition of microbial growth was judged by comparison with a control culture prepared without any sample tested. Nystatin (Sigma) was used as a reference antifungal compound. Subsequently MIC minimal inhibitory concentration (MIC) of the compounds was examined by the microdilution broth method, using their two-fold dilutions in RPMI 1640 broth with MOPS prepared in 96-well polystyrene plates. Final concentrations of the compounds ranged from 1000 to 0.0038 µg/ml. Microbial suspensions were prepared in sterile saline with an optical density of 0.5 McFarland standard. Next fungal suspension was added per each well containing broth and various concentrations of the examined compounds. After incubation, the MIC was assessed spectrophotometric as the lowest concentration of the samples showing complete fungal growth inhibition. Appropriate DMSO, growth and sterile controls were carried out. The medium with no tested substances was used as a control (Wiegand et al. [2008]). The minimal fungicidal concentration (MFC) are defined as the lowest concentration of the compounds that is required to kill a particular fungal species. MFC was determined by removing the culture using for MIC determinations from each well and spotting onto appropriate agar medium. The plates were incubated. The lowest compounds concentration with no visible growth observed was assessed as a fungicidal concentration. All the experiments were repeated three times and representative data are presented.
(§2) The MFC/MIC ratios were calculated in order to determine fungicidal (MFC/MIC ≤ 4) or fungistatic (MFC/MIC > 4) effect of the tested compounds (O’Donnell et al. [2010]).

[2] = test system: C. famata; details: Debaryomyces hansenii, C. famata clinical strain; for MFC: read-out: MFC; for MIC: read-out: MIC
Text: as §1, §2

[3] = test system: C. sake; details: Fermentozyma sake, C. sake clinical strain; for MFC: read-out: MFC; for MIC: read-out: MIC
Text: as §1, §2

[4] = test system: C. parapsilosis; details: Lodderomyces parapsilosis, C. parapsilosis clinical strain; for MFC: read-out: MFC; for MIC: read-out: MIC
Text: as §1, §2

[5] = test system: C. albicans; details: Candida albicans, C. albicans clinical strain; for MFC: read-out: MFC; for MIC: read-out: MIC
Text: as §1, §2

[6] = test system: C. dubliniensis; details: Candida dubliniensis, C. dubliniensis clinical strain; for MFC: read-out: MFC; for MIC: read-out: MIC
Text: as §1, §2

[7] = test system: C. guilliermondii; details: Meyerozyma guilliermondii, C. guilliermondii clinical strain; for MFC: read-out: MFC; for MIC: read-out: MIC
Text: as §1, §2

[8] = test system: C. tropicalis; details: Candida tropicalis, C. tropicalis clinical strain; for MFC: read-out: MFC; for MIC: read-out: MIC
Text: as §1, §2

[9] = test system: C. lambica; details: Pichia fermentans, C. lambica clinical strain; for MFC: read-out: MFC; for MIC: read-out: MIC
Text: as §1, §2

[10] = test system: C. glabrata; details: Nakaseomyces glabratus, C. glabrata clinical strain; for MFC: read-out: MFC; for MIC: read-out: MIC
Text: as §1, §2

[11] = test system: C. lusitaniae; details: Clavispora lusitaniae, C. lusitaniae clinical strain; for MFC: read-out: MFC; for MIC: read-out: MIC
Text: as §1, §2

[12] = test system: C. inconspicua; details: Pichia inconspicua, C. inconspicua clinical strain; for MFC: read-out: MFC; for MIC: read-out: MIC
Text: as §1, §2

[13] = test system: C. kefyr; details: Kluyveromyces marxianus, C. kefyr clinical strain; for MFC: read-out: MFC; for MIC: read-out: MIC
Text: as §1, §2

[14] = test system: C. pulcherrima; details: C. pulcherrima clinical strain; for MFC: read-out: MFC; for MIC: read-out: MIC
Text: as §1, §2

SMILES | MFC [1] [µg/mL] | MIC [1] [µg/mL] | MFC [2] [µg/mL] | MIC [2] [µg/mL] | MFC [3] [µg/mL] | MIC [3] [µg/mL] | MFC [4] [µg/mL] | MIC [4] [µg/mL] | MFC [5] [µg/mL] | MIC [5] [µg/mL] | MFC [6] [µg/mL] | MIC [6] [µg/mL] | MFC [7] [µg/mL] | MIC [7] [µg/mL] | MFC [8] [µg/mL] | MIC [8] [µg/mL] | MFC [10] [µg/mL] | MIC [10] [µg/mL] | MFC [11] [µg/mL] | MIC [11] [µg/mL] | also measured
Clc1ccc(-c2csc(N/N=C/C3CC3)n2)cc1 [Compound 3c, (E)-4-(4-Chlorophenyl)-2-(2-(cyclopropylmethylene)hydrazinyl)thiazole] | 0.48 (≈ 1.73 µM) | 0.12 (≈ 0.432 µM) | 0.98 (≈ 3.53 µM) | 0.12 (≈ 0.432 µM) | 0.98 (≈ 3.53 µM) | 0.12 (≈ 0.432 µM) | 0.12 (≈ 0.432 µM) | 0.03 (≈ 0.108 µM) | 0.98 (≈ 3.53 µM) | 0.06 (≈ 0.216 µM) | 0.06 (≈ 0.216 µM) | 0.03 (≈ 0.108 µM) | 0.98 (≈ 3.53 µM) | 0.24 (≈ 0.864 µM) | 0.12 (≈ 0.432 µM) | 0.12 (≈ 0.432 µM) | > 1000 | 500 (≈ 1800 µM) | 0.12 (≈ 0.432 µM) | 0.12 (≈ 0.432 µM) | MFC [9]: > 1000 µg/mL; MIC [9]: 125 µg/mL (≈ 450 µM); MFC [12]: 3.91 µg/mL (≈ 14.1 µM); MIC [12]: 0.98 µg/mL (≈ 3.53 µM); MFC [13]: > 1000 µg/mL; MIC [13]: 31.2 µg/mL (≈ 112 µM); MFC [14]: > 1000 µg/mL; MIC [14]: 125 µg/mL (≈ 450 µM)
Cc1ccc(-c2csc(N/N=C/C3CC3)n2)cc1 [Compound 3d, (E)-2-(2-(Cyclopropylmethylene)hydrazinyl)-4-p-tolylthiazole] | 0.98 (≈ 3.81 µM) | 0.24 (≈ 0.933 µM) | 3.91 (≈ 15.2 µM) | 0.48 (≈ 1.87 µM) | 0.48 (≈ 1.87 µM) | 0.12 (≈ 0.466 µM) | 0.24 (≈ 0.933 µM) | 0.06 (≈ 0.233 µM) | 0.24 (≈ 0.933 µM) | 0.12 (≈ 0.466 µM) | 0.12 (≈ 0.466 µM) | 0.06 (≈ 0.233 µM) | 3.91 (≈ 15.2 µM) | 0.48 (≈ 1.87 µM) | 0.12 (≈ 0.466 µM) | 0.06 (≈ 0.233 µM) | > 1000 | 15.6 (≈ 60.7 µM) | 0.48 (≈ 1.87 µM) | 0.12 (≈ 0.466 µM) | MFC [9]: > 1000 µg/mL; MIC [9]: 15.6 µg/mL (≈ 60.7 µM); MFC [12]: 0.98 µg/mL (≈ 3.81 µM); MIC [12]: 0.12 µg/mL (≈ 0.466 µM); MFC [13]: 7.81 µg/mL (≈ 30.3 µM); MIC [13]: 1.95 µg/mL (≈ 7.58 µM); MFC [14]: > 1000 µg/mL; MIC [14]: 15.6 µg/mL (≈ 60.7 µM)
[N-]=[N+]=Nc1ccc(-c2csc(N/N=C/C3CC3)n2)cc1 [Compound 3i, (E)-4-(4-Azidophenyl)-2-(2-(cyclopropylmethylene)hydrazinyl)thiazole] | 7.81 (≈ 27.5 µM) | 0.98 (≈ 3.45 µM) | 7.81 (≈ 27.5 µM) | 1.95 (≈ 6.86 µM) | 7.81 (≈ 27.5 µM) | 0.48 (≈ 1.69 µM) | 0.98 (≈ 3.45 µM) | 0.24 (≈ 0.844 µM) | 15.6 (≈ 54.9 µM) | 0.48 (≈ 1.69 µM) | 0.12 (≈ 0.422 µM) | 0.015 (≈ 0.0528 µM) | 15.6 (≈ 54.9 µM) | 0.98 (≈ 3.45 µM) | 1.95 (≈ 6.86 µM) | 0.24 (≈ 0.844 µM) | > 1000 | 31.2 (≈ 110 µM) | 1.95 (≈ 6.86 µM) | 0.48 (≈ 1.69 µM) | MFC [12]: 0.98 µg/mL (≈ 3.45 µM); MIC [12]: 0.48 µg/mL (≈ 1.69 µM); MFC [13]: > 1000 µg/mL; MIC [13]: 7.81 µg/mL (≈ 27.5 µM); MFC [14]: > 1000 µg/mL; MIC [14]: 62.5 µg/mL (≈ 220 µM)
